Experimental data taken from US6420393B1, “Cyclopentabenzofuran derivatives and their use” (Bayer Aktiengesellschaft, priority 1998, dated 2002).
Where two headings read alike, the source gives them in different places.

Key:
[1] = tested on: NF-κB-mediated TNFα synthesis in human monocytes; test: cells; type: cell-based; details: Monocyte, 100 nM PMA, read-out: IC50 value after PMA stimulus (TNFα synthesis)
[2] = tested on: NF-κB-mediated TNFα synthesis in human monocytes; test: cells; type: cell-based; details: Monocyte, LPS 125 ng/ml, 18 hours, TNFα ELISA, read-out: IC50 (inhibition of NF-κB-mediated TNFα synthesis)
[3] = tested on: human tissue factor promoter (luciferase) in RAW-A3 cells (RAW 264.7 transfectant); test: Inhibition of NF-κB-mediated expression of the human tissue factor gene: promoter-luciferase reporter in RAW-A3 monocyte cells; type: cell-based; details: read-out: IC50 (tissue factor promoter-driven luciferase activity)
Method: Inhibition of the NF-κB-mediated Gene Expression of the Human Tissue Factor Gene in Monocytes
Therefore, for the further detection of the inhibition of the NFκB-mediated gene expression by the inhibitors according to the invention, the following biological test was carried out:
The promoter fragment of the human tissue factor gene which contains the NF-κB binding sequence was cloned with oligonucleotide primers of the sequence 5′-TCCCTCGAGATCTCCCAGAGGCAAACTGCCAGAT-3′ (5′ primer of position −925) and 5′-TCCTCGAGCCATGGCTACCAGTTGGGCGGCGAGATC-3′ (3′ primer containing the ATG start codon of the coding sequence of the tissue factor gene) by means of the polymerase chain reaction (PCR) and fused by means of an NcoI/XhoI cloning with the luciferase start codon in the plasmid pGL3-basic vector (Promega Corp. 2800 Woods Hollow Road, Madison, Wis. 53711-5399 USA). […]
After a further 6 hours, the culture supernatant is aspirated and the cells are processed for the measurement of the luciferase activity according to the procedure of the “Luciferase Assay System” (Technical Bulletin of Promega, 2800 Woods Hollow Road, Madison, Wis. 53711-5399 USA. Products E4030, E1483, E1501). The cell lyzate is incubated with the luciferase assay substrate and measured in a luminometer to measure the emitted light. […]

[4] = tested on: interleukin-2 promoter (luciferase) in SS-1 cell line; test: Inhibition of interleukin-2 synthesis: interleukin-2 promoter-luciferase reporter cell line (SS-1), PMA/ionomycin induced; type: cell-based; details: IL-2 promoter reporter cell line, PMA 5 ng/ml + ionomycin, 24 hours; read-out: IC50 (inhibition of induction of luciferase activity to 50%)
Text: Inhibition of Interleukin-2 Synthesis
For the testing of the inhibitory action of cyclopentabenzene derivatives on interleukin-2 synthesis, a receptor gene cell line was used which contains the interleukin-2 promoter coupled to the luciferase gene. The promoter contains the DNA sequence from −480 to +4. The vector employed is pGL3; the starting cell line in which the total construct has been stably transfected is SS-1. The culture medium for this cell line was RPMI 1640 (Gibco, Rockille). It additionally contained: 100 μg/ml of streptomycin, 100 U/ml of penicillin, 2 mM L-glutamine, 10% heat-inactivated FBS and 800 μg/ml of G418 sulfate.
The reporter gene test cell line was inoculated into 96-well plates to 1×10^6 cells per well in Phenol Red-free RPMI with the additives and incubated at 37° C. in an atmosphere of 5% CO2, 95% air with phorbol 12-myristate 13-acetate (PMA; 5 ng/ml) and ionomycin ([…]; 0.4 μg/ml) for 24 hours. The test substances were added simultaneously with PMA.
For the generation of the luminescence, LucLite™ solution (Packard, Meriden, Conn.) was added to a concentration of 100 μl/well and the luminescence was measured in a luminometer (Luminoskan, Labsystems) immediately after addition.

[5] = tested on: ELAM-1 expression in HUVECs; test: TNF-induced expression of ELAM-1 on HUVEC surface (FACS, anti-ELAM-1 antibody); type: cell-based, human
Method: Inhibition of the NF-κB-mediated Gene Expression of the Adhesion Protein ELAM-1 to Human Umbilical Cord Endothelial Cells (HUVEC)
(§1) The influence of compound I-3-R on the expression of ELAM-1 was checked in two different test batches. In one functional batch, the adhesion of human neutrophils to TNF-α-stimulated HUVEC cells was measured. The expression of ELAM-1 on the surface of the HUVECs was determined using a fluorescence-labeled ELAM-1-specific monoclonal antibody by means of FACS (cell sorting) analysis.
Experimental Procedure Quantitative Measurement of the TNF-induced Expression of ELAM-1 in HUVECs
Umbilical cord endothelial cells (HUVEC) were cultured as described above and incubated for 4 hours in the presence or absence of test substances in the presence or absence of 10 ng/ml of TNF. […] After centrifuging and washing again, the cells were taken up in 1 ml of PBS plus 1% BSA and measured at 488 nm in a flow cytometer (Becton and Dickinson). The intensity of the fluorescence as a function of bound anti-ELAM-1 antibody per cell is measured by this process. 5000 cells were measured for each value.

[6] = tested on: adhesion of human neutrophils to TNF-α-stimulated HUVEC cells; test: ELAM-dependent adhesion of human neutrophils to TNF-α-stimulated HUVEC; type: cell-based
Method: as §1
Experimental Procedure: ELAM-dependent Neutrophil Adhesion to Endothial Cells
The neutrophils were isolated from human blood (100 ml). To this end, 3.5 ml of Polyprep was introduced into a centrifuge bucket and carefully coated with 5 ml of blood. After centrifuging at 2100 min^−1 for 30 minutes, the neutrophil band in the center of the centrifuge bucket was aspirated. After 1:2 dilutions in Clonetics endothelial cell basal medium (EBM), the neutrophils were again centrifuged at 1000 min^−1 for 20 minutes and then made up to a cell concentration of 10^6 cells/ml.
The umbilical cord endothelial cells were grown to confluence in EBM+10% FCS in 96 well microtiter plates. At the start of the experiment, the medium was replaced by EBM without FCS and the experimental substances then employed. After 20 minutes, the HUVECs were stimulated using 10 nM TNF-α. […] The fluorescence of the adherent neutrophils was then measured in a fluorescence photometer.

Row | Compound | IC50 [1] | IC50 [2] | IC50 ([3]; RAW264.7, 6 h) | IC50 [4] | Completeness of inhibition of ELAM-1 expression ([5]; HUVEC, 10 ng/ml TNF, 4 hours, FACS, all concentrations investigated) | Inhibition of expression of ELAM-1 on the cell surface (maximum inhibition) ([5]; TNF-α-stimulated HUVECs, inhibited to 50%) | Inhibition of adhesion of neutrophils to TNF-α-stimulated HUVECs ([6]; 10 nM TNF-α, 4 hours, inhibited to 50%) | Concentration at which maximum inhibition of cell adhesion was determined ([6]; neutrophil adhesion to TNF-α-stimulated HUVECs) | IC50 ([3]; RAW264.7, RAW-A3 cells, induction with 15% serum, 6 hours)
1 | COC(=O)CN[C@@H]1C[C@@H](c2ccccc2)[C@]2(c3ccc(OC)cc3)Oc3cc(OC)cc(OC)c3[C@]12O [Example I-5, methyl (1α,3β,3aβ,8bβ)-N-(3,3a-dihydro-6,8-dimethoxy-3a-(4-methoxyphenyl)-3-phenyl-cyclopenta[b]benzofuran-8b(2H)-ol-1-yl)-2-aminoacetate] | 90 nM | 500 nM | 2000 nM |  |  |  |  |  | 
2 | COc1ccc([C@@]23Oc4cc(OC)cc(OC)c4[C@]2(O)[C@H](O)C[C@H]3c2ccccc2)cc1 (racemic) [Example I-3-R] |  | 100 nM |  | 5 to 10 nM | completely inhibited at none of the concentrations investigated | 50% | 50% | 50 nM | 
3 | COc1ccc([C@@]23Oc4cc(OC)cc(OC)c4[C@]2(O)[C@@H](O)C[C@H]3c2ccccc2)cc1 (racemic) [Example I-1, (1α,3α,3aα,8bα)-3,3a-dihydro-6,8-dimethoxy-3a-(4-methoxyphenyl)-3-phenyl-1H-cyclopenta[b]benzofuran-1,8b(2H)-diol] | 100 nM | 500 nM |  |  |  |  |  |  | 20000 nM
